The values below come from PMC9292375, “Structural basis of an epitope tagging system derived from Haloarcula marismortui bacteriorhodopsin I D94N and its monoclonal antibody GD‐26” (The Febs Journal, 2021).

One may read the stoichiometry N as the number of molecules, sites or subunits per partner or assembly.

“And” between values parts separate entries of the source, which are not always exact repeats. Identical values can stand only once. “Also recorded” adds a separate entry of the source. Where a SMILES comes first, the peptide text is derived from it.

The nature of data set [1]: Protease resistance of the TD tag during expression and purification. As to conditions: without protease inhibitors; tag remains attached and detectable after expression and purification from bacterial and mammalian cell systems.
The target in the next data set is G196. Further details: method as in PMID 28266535. As to conditions: anti‐tag antibody G196; read-out: Affinity (K D); cited from earlier work.
The next data set deals with M2. Conditions: read-out: Affinity (K D); anti‐tag antibody M2; cited from earlier work.
For another data set, the target named is 9E10. As to conditions: anti‐tag antibody 9E10; read-out: Affinity (K D); cited from earlier work.
In the next data set the target is GD‐26 Fab. Description: ITC titration of peptides or TD‐tagged eGFP into GD‐26 Fab. As to conditions: 25 °C, Tris buffer pH 7.5, engineered synthetic peptides, single experiment (n = 1). In kind it is binding, mouse. The method, then:
The titration experiments were performed with a MicroCal PEAQ‐ITC Automated (Malvern Panalytical, Malvern, UK) at 25 °C. The ITC sample cell contained 200 μL of GD‐26 IgG or GD‐26 Fab in the Tris buffer (50 mM Tris, 150 mM NaCl, pH 7.5). In the syringe, 40 μL of synthetic peptides (peptide III–V) or TD‐tagged eGFP in the same Tris buffer was injected into the sample cell using 20 injections (0.4 μL for the first injection). Prior to data analysis, heats of dilution generated by injecting the peptide solution into the buffer in the sample cell were subtracted from the experimental data. The experimental raw data were analysed using the MicroCal PEAQ‐ITC Analysis software package provided with the instrument. The first data point was removed for fitting the data to a one‐set‐of‐sites model. After entering sample concentrations, the inbuilt function for fitting is operated by clicking iteration button until a good fit to the experimental data points of the isotherms is achieved and Chi‐squared is no longer decreasing. The final fitting parameters including K D, changes in enthalpy (ΔH), entropy (ΔS) and Gibb's free energy (ΔG) and binding stoichiometry were generated by the same software.
(ITC needs no label: the signal is the heat of the interaction.)

In a further data set the target is Nanobody ALFA. Further details: method as in PMID 31562305. Conditions: read-out: Affinity (K D); cited from earlier work.
In the next data set the target is 4B2. Further details: method as in PMID 24480187. Conditions: anti‐tag antibody 4B2; read-out: Affinity (K D); cited from earlier work.
Data set [2] deals with T1, TD peptide (GTGATPADD), peptide V from the C terminus of HmBRI D94N (Haloarcula marismortui HmBRI C terminus …).
T1 construct: nine residues at the C terminus of Haloarcula marismortui bacteriorhodopsin I (HmBRI); residue numbers 1-9 count on: the TD peptide; also called TD tag; wild-type TD peptide; source: synthetic peptide
T1 chain: GTGATPADD
Description: ITC; synthetic peptide in the syringe titrated into GD-26 Fab or GD-26 IgG (10 μM) in the cell; 25 °C; 50 mM Tris, 150 mM NaCl, pH 7.5; one-set-of-sites model. Conditions: both partners purified.

Data set [3] in a line: Storage stability of GD‐26 IgG. The format is physicochemical. As to conditions: stored at 4 °C in Tris buffer.

With `C[C@H](NC(=O)CNC(=O)[C@@H](NC(=O)CN)[C@@H](C)O)C(=O)N[C@H](C(=O)N1CCC[C@H]1C(=O)N[C@@H](C)C(=O)N[C@@H](CC(=O)O)C(=O)N[C@@H](CC(=O)O)C(=O)O)[C@@H](C)O` [TD] (H-GTGATPADD-OH), in data set [1], the “cellular protease resistance and proteolytic stability” value is “good cellular protease resistance and proteolytic stability”.

Consider DLVPR, for which the Kd on G196 was 1.25 nM.

Turning to DYKDDDDK [FLAG], at M2, the Kd was 3 to 31 nM.

Consider EQKLISEEDL [c‐Myc], for which, on 9E10, the Kd was 2.2 to 560 nM.

As to “GTGATPA [C2, engineered TD peptide, Asp9 and Asp8 depleted]”, the “K D” value on GD‐26 Fab is reported as “complete loss of binding; also recorded: No binding”.

In the case of SRLEEELRRRLTE [ALFA], the Kd on Nanobody ALFA is 0.026 nM.

As to “TPADD [N4, engineered TD peptide, Gly1 to Ala4 deleted]”, the “K D” value on GD‐26 Fab is “completely diminished its capability to bind; also recorded: No binding”.

Take YPYDVPDYA [HA]: the Kd on 4B2 is 1.6 nM.

B1: GD-26 IgG (recombinant monoclonal antibody GD-26, mouse IgG2a) (antibody, V domains shown)
VH: QVQLRQSGPELVKPGASVKMSCRASGYTFTNYNIHWVRQRPGQGLEWIGWIYPVDGTTKYNEKFKDKTTLTSDKSSSTAYMSLSGLTSEDSAIYFCARGLDNWGQGTSVTVSS
VL: DVVLTQTPLSLSVTIGQPASISCRSSQRLLYSNGKTYLNWFQQRPGQAPKYLMFQVSKLGPGIPARFSGSGSETDFTLKISRVEAEDLGVYYCFQGTFFPHTFGGGTKLEMK
notes: PDB 7DOH); Mouse IgG2a isotype; the same light-chain plasmid as for the Fab; source: Expi293F, transient co-transfection, secreted; purified (HiTrap Protein G, Superdex 200 gel filtration); copies: 2 + 2
B1: in data set [2], the Kd was 22.6 nM and 18.8 nM; the dH was -12.2 kcal/mol; the “stoichiometry N” value is 2.28 sites and 2.27 sites.

B2: GD‐26 IgG: recombinant monoclonal antibody, mouse IgG2a isotype, raised against HmBRI D94N (antibody, V domains shown)
VH: B1 VH
VL: B1 VL
In the case of B2, the “long‐term stability on storage” value in data set [3] is “over a year”.
